Experiment: in vitro
Settings: human, hela cells, % viability

Row | SMILES | viability at 28.5 h, 10 µM
1 | OC1(Cn2ccc3ncccc32)CCN(Cc2ccccc2F)CC1 [CBK284752] | 93.3%
2 | O=C(O)C[C@]1(C(=O)NC2CCCCCC2)CC(c2ccc(Cl)cc2)=NO1 [CBK286716] | 92.3%
3 | Cc1ccc2c(c1)C(=O)CC1(CCC3C(C(=O)N4CCCC4)C31)O2 (centres unmarked) [CBK284951] | 98.3%
4 | Nc1ncc(-c2ccc(C(=O)N3CCOCC3)cc2)cc1C(=O)NCc1c(F)cccc1F [CBK158569] | 80.6%
5 | Cc1nc(-c2ccccc2)sc1C(=O)C1=C(O)C(=O)N(CCN(C)C)C1c1ccccc1 (centres unmarked) [CBK266415] | 100%
6 | O=C(CNC(=S)NC(=O)c1ccc(Br)o1)c1ccccc1 [CBK265310] | 98%
7 | CCOC(=O)CCNC(=O)c1cc2cccc(OC)c2o1 [CBK149816] | 88.1%
8 | C/C(=N\N=C1\N=C(O)C(CC(=O)O)S1)c1ccco1 (centres unmarked) [CBK021973] | 96.8%
9 | CN(C)CCCC(=O)Nc1ccc2[nH]ccc2c1 [CBK159698] | 114%
10 | Cc1ccc2cc(CN(Cc3ccc4c(c3)OCO4)Cc3nnnn3Cc3ccco3)c(=O)[nH]c2c1 [CBK108949] | 93.9%
11 | O=C(O)CC1COCCN1Cc1ccc(Cn2cccn2)cc1 (centres unmarked) [CBK306827] | 89.1%
12 | NC(=O)CN1CCC(Oc2cncc(OCCN3CCOCC3)n2)C1 (centres unmarked) [CBK084488] | 111%
13 | COc1ccc(CCNC(=O)c2cnc3sc(C)cn3c2=O)cc1OC [CBK287709] | 104%
14 | S=C(NCc1ccco1)NCc1cn(-c2ccccc2)nc1-c1ccccc1 [CBK266895] | 112%
15 | C=CCOC(=O)N1CCC(C(=O)NC(c2ccccn2)c2ccccc2C)CC1 (centres unmarked) [CBK059689] | 94%
16 | COc1ccc(OCC(=O)N2CCN(C3CCC(c4ccccc4)CC3)CC2)cc1 (centres unmarked) [CBK263459] | 97.7%
17 | CC(=O)NC(c1ccccn1)C1CCN(C(=O)C2CCCCC2)CC1 (centres unmarked) [CBK285049] | 98%
18 | CN(C)CCOC(=O)c1ccc2[nH]c3c(c2c1)CSCC3 [CBK009731C] | 95.8%
19 | O=c1[nH]cc(-c2ccccc2)cc1CNCC1Cc2ccccc2O1 (centres unmarked) [CBK284772] | 92.3%
20 | C[S+]([O-])CC(O)(c1ccc(F)cc1)C1CC1 (centres unmarked) [CBK025846] | 114%
21 | NC(=O)c1cnn(-c2cc(Oc3ccccc3)ncn2)c1N [CBK098664] | 105%

Row | SMILES | viability at 28.5 h, 10 µM
22 | O=C1NC(=O)C(CCCCN2CCCc3ccccc32)N1 (centres unmarked) [CBK143965] | 98.3%
23 | O=C(CCn1c(=O)oc2cc(Cl)ccc21)NCc1ccco1 [CBK269857] | 95%
24 | COc1cccc(OC)c1OCCN1CCC(NC(=O)Nc2ccc(Cl)cn2)CC1 [CBK051515] | 94.4%
25 | CC(C)(CO)Cn1c(=O)[nH]c2ncc(-c3ccc(F)c(Cl)c3)nc21 [CBK064737] | 102%
26 | CCn1ncc(CN2CCN(C(=S)Nc3ccccc3C(F)(F)F)CC2)c1C [CBK266968] | 96.2%
27 | CC(C)NC(=S)NC(=O)C1CCC1 [CBK010718] | 86.2%
28 | O=C(NCCN1CCC(O)(c2ccc(F)cc2)CC1)C1CC1 [CBK283164] | 97.1%
29 | CCC12CN3CCN(CC(C3)/C1=N\O)C2 [CBK263022] | 85.9%
30 | CC(C)=NNC(=O)CSc1nc(N2CCOCC2)c2ccccc2n1 [CBK009114] | 85.2%
31 | Cc1nn(C)c(N2CCNCC2)c1NC(=O)Cc1c[nH]c2ccccc12 [CBK050256T] | 97.1%
32 | CN(C(=O)c1cccn1C)C1CCN(c2ncnc3ccccc23)CC1 [CBK306110] | 91.8%
33 | CCOC(=O)c1cccc(NS(=O)(=O)c2cc(F)c(Br)cc2F)c1 [CBK034333] | 89.2%
34 | CC(C)(c1ccccc1)c1ccc(OCC(=O)Nc2cccc(C(=O)O)c2)cc1 [CBK266014] | 102%
35 | Cc1ccc2cc(CN(Cc3ccco3)C(=O)c3cccs3)c(O)nc2c1 [CBK269274] | 105%
36 | COc1ccccc1N(CCCc1cc(C(F)(F)F)cc(C(F)(F)F)c1)C(=O)C(N)C(C)C (centres unmarked) [CBK001004T] | 98.5%
37 | C1=CC2CC1CC2CN1CCN(Cc2cccnc2)CC1 (centres unmarked) [CBK027284] | 100%
38 | O=C(Nc1cc2ccccc2c(Br)n1)C(F)(F)F [CBK063301] | 82%
39 | Cc1ccccc1C(c1ncccc1C)N(C)C(=O)C1CCN(Cc2ccc(Cl)c(Cl)c2)CC1 (centres unmarked) [CBK148366] | 92.2%
40 | CCOC(=O)c1c(C)nc2ccccc2c1O [CBK153666] | 110%
41 | COc1ccc(-c2cc(N3CCC(N4CCCCC4)CC3)ncn2)cc1OC [CBK037752] | 90%
42 | OCC1(CNc2ncc(F)c(N3CCCC3)n2)CCCC1 [CBK307397] | 103%

Row | SMILES | viability at 28.5 h, 10 µM
43 | Cc1ncsc1C(=O)N1CCC(c2cccc(Cc3ccccc3Cl)n2)CC1 [CBK286146] | 99.2%
44 | O=C(COc1ccc(S(=O)(=O)NC2CCCCC2)cc1)Nc1cccc2ccccc12 [CBK266023] | 100%
45 | CN(C)CCCn1c(=O)[nH]c2sc3c(c2c1=N)CC(C)(C)OC3 [CBK269103] | 107%
46 | CCc1cc2c(NC(C(=O)O)C(C)C)ncnc2s1 (centres unmarked) [CBK265349] | 97.7%
47 | CC(C)(C)c1ccc(O)c(NC(=S)NC(=O)c2ccccc2I)c1 [CBK264399] | 114%
48 | Cn1ccnc1CNC(=O)c1cccc(OCC(=O)N2CCCCC2)c1 [CBK306635] | 86.8%
49 | O=C(CCS(=O)(=O)c1ccccc1)N(Cc1cccnc1)c1nc2c(F)cccc2s1 [CBK294422] | 81.5%
50 | COc1cccc(Cn2c(=O)[nH]n(-c3ccccc3)c2=O)c1 [CBK122771] | 97.7%
51 | COCCCNC(=O)c1cccs1 [CBK009164] | 91.8%
52 | O=C(NCc1cccnc1)c1cc(S(=O)(=O)N2CCCC2)c(Cl)cc1Cl [CBK264455] | 108%
53 | Cc1csc(C(Cc2ccsc2)NC(=O)c2ccnn2C)n1 (centres unmarked) [CBK285107] | 104%
54 | CCCCOC(=O)c1ccc(NC(=O)c2c(Cl)cccc2Cl)cc1 [CBK263664] | 88.2%
55 | O=C(Oc1ccc(/C=N/NC(=O)C2COc3ccccc3O2)cc1)c1cccnc1 (centres unmarked) [CBK262811] | 96.5%
56 | Clc1ccc(COc2cc(N3CCCN(CC4CC4)CC3)ncn2)cc1Cl [CBK084070] | 90.8%
57 | Cc1cccnc1Nc1ccc(C2CCCN(C(=O)Cc3ccc4c(c3)CCCO4)C2)nc1 (centres unmarked) [CBK285969] | 89.8%
58 | OC(CNCc1cccs1)COc1cccc2c1CCCC2 (centres unmarked) [CBK002239] | 96.1%
59 | Cc1csc(Sc2nccnc2NC(C)C)n1 [CBK115203] | 88.8%
60 | CCOC(=O)c1ccc(S(=O)(=O)N2CCCCC2)cc1 [CBK069738] | 106%
61 | CN(C(=O)CCc1nc2sc3c(c2c(=O)[nH]1)CCCC3)C1CCCCC1 [CBK306075] | 88.2%
62 | O=C1NC2(CCC(=O)N(Cc3ccccc3)CC2)Oc2ccccc21 (centres unmarked) [CBK284438] | 91.6%

Same assay, conditions: human, hela cells, % viability, bulk resorufin, single well

Row | SMILES | viability at 28.5 h, 10 µM
63 | O=C(C1CCN(S(=O)(=O)c2cccs2)CC1)N1CCC(C(=O)O)(c2ccccc2)CC1 [CBK297147] | 88%
64 | CCOc1ccc(N2C(=O)/C(=C/c3ccc(Br)cc3)C(=O)NC2=S)cc1 [CBK263305] | 92.7%
65 | CCOC(=O)C1(c2ccccc2)CCN(C(=O)Cc2nnn[nH]2)CC1 [CBK132182] | 94.6%
